Patent US20240254138A1, “TRICYCLIC PYRIMIDINES AS CYCLIN-DEPENDENT KINASE 7 (CDK7) INHIBITORS” (JANSSEN PHARMACEUTICA NV, priority 2021, published 2024)
pKi: −log10 of the molar value. Read-outs that look alike come from different tables or passages of the source.

Experiments:
[1] = system: RNA Polymerase II Serine 5 phosphorylation (Rpb1 CTD, downstream substrate of CDK7) in A549 cells; experiment: Imaging-based cellular RNA PolII Ser5 phosphorylation assay in A549 cells; assay type: cell-based, human; details: wild-type CDK7, RNA PolII Ser5 phosphorylation, averaged over all measurements; for IC50: Homo sapiens, A549, A549 cells, read-out: CDK7_A549 Wild-type CDK7 (pIC50) (converted); for CDK7_A549 Wild-type CDK7 (pIC50): A549 cells
In short: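 IC50 derived by fitting % control (DMSO high, 10 μM reference low) against concentration, with Hill slope. Readout: high-content imaging of phospho-Ser5 Rpb1 CTD antibody staining in fixed, permeabilized A549 cells exposed to compound 3 h after 20 h culture in 1% FBS DMEM.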

[2] = system: RNA Polymerase II Serine 5 phosphorylation in A549 cells overexpressing CDK7-mutant (C312S); experiment: Imaging-based cellular RNA PolII Ser5 phosphorylation assay in A549 cells overexpressing CDK7-mutant (C312S); assay type: cell-based, human; details: RNA PolII Ser5 phosphorylation, averaged over all measurements; for IC50: Homo sapiens, A549, A549 cells overexpressing CDK7-mutant (C312S), read-out: CDK7_A549 mutant hCDK7(pIC50) (converted); for CDK7_A549 mutant hCDK7(pIC50): A549 cells overexpressing CDK7-mutant (C312S)
In short: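 Readout was automated imaging of anti-phospho-Ser5 Rpb1 CTD immunofluorescence, with IC50 fitted to % control versus concentration. Cells were A549 stably overexpressing non-covalently targetable CDK7 C312S alongside wild-type, exposed to compound 3 h at 37 °C. DMSO and 10 μM reference compound served as controls.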

[3] = biological target: CDK7/cyclinH/MAT1 trimeric complex (Homo sapiens, UniProt P50613); experiment: In vitro CDK7 assay, potency of irreversible covalent inhibitors (kinact/KI), coupled PK/LDH ADP readout at 340 nm; details: for Ki: CDK7 (20 nM enz.) (KI, μM); for kinact: read-out: CDK7 (20 nM enz.) (kinact, s^−1), 20 nM enzyme; for kinact/KI: read-out: CDK7 (20 nM enz.) (kinact/KI, M^−1*s^−1), 20 nM enzyme
Sequence of CDK7/cyclinH/MAT1 trimeric complex (P50613 whole entry): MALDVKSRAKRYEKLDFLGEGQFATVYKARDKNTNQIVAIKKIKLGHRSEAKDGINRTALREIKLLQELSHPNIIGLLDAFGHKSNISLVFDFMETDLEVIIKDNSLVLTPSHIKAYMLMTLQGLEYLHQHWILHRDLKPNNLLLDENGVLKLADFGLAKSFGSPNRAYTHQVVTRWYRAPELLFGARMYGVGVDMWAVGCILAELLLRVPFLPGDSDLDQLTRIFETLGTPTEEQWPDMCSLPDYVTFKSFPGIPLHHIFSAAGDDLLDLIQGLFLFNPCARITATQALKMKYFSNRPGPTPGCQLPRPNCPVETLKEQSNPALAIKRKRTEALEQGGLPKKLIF
Sequence of CDK7/cyclinH/MAT1 trimeric complex (P51946 whole entry partner): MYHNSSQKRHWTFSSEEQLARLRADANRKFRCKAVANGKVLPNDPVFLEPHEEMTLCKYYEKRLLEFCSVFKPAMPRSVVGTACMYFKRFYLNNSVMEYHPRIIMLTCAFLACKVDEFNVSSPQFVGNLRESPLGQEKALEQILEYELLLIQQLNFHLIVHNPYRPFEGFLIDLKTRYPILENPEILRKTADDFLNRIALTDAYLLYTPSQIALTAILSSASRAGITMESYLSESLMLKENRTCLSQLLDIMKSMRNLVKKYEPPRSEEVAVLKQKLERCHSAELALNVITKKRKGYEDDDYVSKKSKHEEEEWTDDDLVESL
Sequence of CDK7/cyclinH/MAT1 trimeric complex (P51948 whole entry partner): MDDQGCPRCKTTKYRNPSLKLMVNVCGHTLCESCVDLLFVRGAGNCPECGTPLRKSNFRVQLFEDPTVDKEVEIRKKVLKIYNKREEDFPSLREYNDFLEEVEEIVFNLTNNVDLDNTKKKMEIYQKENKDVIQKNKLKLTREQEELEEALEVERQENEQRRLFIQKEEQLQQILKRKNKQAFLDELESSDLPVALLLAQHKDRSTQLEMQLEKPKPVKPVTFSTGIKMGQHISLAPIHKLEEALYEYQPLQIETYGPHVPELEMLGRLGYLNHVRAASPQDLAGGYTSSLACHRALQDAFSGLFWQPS

| Compound | IC50 [1] | IC50 [2] | Ki ([3]; 20 nM enzyme) | kinact [3] | kinact/KI [3] | CDK7_A549 Wild-type CDK7 (pIC50) [1] | CDK7_A549 mutant hCDK7(pIC50) [2] | CDK7 (20 nM enz.) (kinact, s^−1) ([3]; 20 nM enzyme) | CDK7 (20 nM enz.) (kinact/KI, M^−1*s^−1) ([3]; 20 nM enzyme) | pKi ([3]; read-out: CDK7 (20 nM enz.) (KI), 20 nM enzyme) |
| --- | --- | --- | --- | --- | --- | --- | --- | --- | --- | --- |
| C=CC(=O)N1CC[C@H](N2CC(c3cc4c(c(C5CC5)n3)O[C@@H](C)c3c(N5CCOCC5)ccnc3N4)C2)C1 (single isomer, unassigned) [Compound 466] | 123 nM | > 10000 nM | 0.0307 µM | 5.02e-05 s⁻¹ | 1630 M⁻¹ s⁻¹ | – | – | – | – | – |
| C=CC(=O)N1CC[C@@H](N2CC(c3cc4c(c(C5CC5)n3)O[C@@H](C)c3c(N5CCOCC5)ccnc3N4)C2)C1 (single isomer, unassigned) [Compound 467] | 117 nM | > 10000 nM | 0.0121 µM | 3.18e-05 s⁻¹ | 2630 M⁻¹ s⁻¹ | – | – | – | – | – |
| C=CC(=O)N1CCC(N2CC(c3cc4c(c(C)n3)O[C@@H](C)c3c(C5CCOCC5)ccnc3N4)C2)CC1 (single isomer, unassigned) [Compound 468] | 2040 nM | > 10000 nM | 2.21 µM | 3.64e-05 s⁻¹ | 16.5 M⁻¹ s⁻¹ | – | – | – | – | – |
| C=CC(=O)N1CC[C@@H](N2CC(c3cc4c(c(C5CC5)n3)O[C@H](C)c3c(N5CCOCC5)ccnc3N4)C2)C1 (single isomer, unassigned) [Compound 469] | 2140 nM | > 10000 nM | 1.32 µM | 4.03e-05 s⁻¹ | 30.5 M⁻¹ s⁻¹ | – | – | – | – | – |
| CC#CC(=O)N1CC[C@H](N2CC(c3cc4c(c(C5CC5)n3)O[C@@H](C)c3c(N5CCOCC5)ccnc3N4)C2)C1 (single isomer, unassigned) [Compound 470] | 251 nM | > 10000 nM | 0.0394 µM | 3e-05 s⁻¹ | 761 M⁻¹ s⁻¹ | – | – | – | – | – |
| CC#CC(=O)N1CC[C@H](N2CC(c3cc4c(c(C5CC5)n3)O[C@H](C)c3c(N5CCOCC5)ccnc3N4)C2)C1 (single isomer, unassigned) [Compound 471] | 7080 nM | > 10000 nM | 3.64 µM | 3.28e-05 s⁻¹ | 9.02 M⁻¹ s⁻¹ | – | – | – | – | – |
| CC#CC(=O)N1CC[C@@H](N2CC(c3cc4c(c(C5CC5)n3)O[C@@H](C)c3c(N5CCOCC5)ccnc3N4)C2)C1 (single isomer, unassigned) [Compound 472] | 204 nM | > 10000 nM | – | – | 79.5 M⁻¹ s⁻¹ | – | – | – | – | – |
| CC#CC(=O)N1CC(N2CC(c3cc(C#N)c4c(c3)Nc3nccc(C5CCOCC5)c3[C@@H](C)O4)C2)C1 (single isomer, unassigned) [Compound 475] | 204 nM | 7590 nM | – | – | 351 M⁻¹ s⁻¹ | – | – | – | – | – |
| C=CC(=O)N1CC(N2CC(c3cc4c(c(C)n3)O[C@H](C)c3c(C5CCOCC5)ccnc3N4)C2)C1 (single isomer, unassigned) [Compound 477] | 166 nM | > 10000 nM | – | – | 342 M⁻¹ s⁻¹ | – | – | – | – | – |
| C=CC(=O)N1CC[C@H](N2CC(c3cc4c(c(C)n3)O[C@H](C)c3c(-c5cnn(C)c5)ccnc3N4)C2)C1 (single isomer, unassigned) [Compound 478] | 158 nM | > 10000 nM | – | – | 292 M⁻¹ s⁻¹ | – | – | – | – | – |
| C=CC(=O)N1CC(N2CC(c3cc4c(c(C)n3)O[C@@H](C)c3c(C5CCOCC5)ccnc3N4)C2)C1 (single isomer, unassigned) [Compound 480] | 4570 nM | > 10000 nM | – | – | 2.97 M⁻¹ s⁻¹ | – | – | – | – | – |
| C=CC(=O)N1CC[C@@H](N2CC(c3cc4c(c(C)n3)O[C@H](C)c3c(-c5cnn(C)c5)ccnc3N4)C2)C1 (single isomer, unassigned) [Compound 482] | 89.1 nM | > 10000 nM | – | – | 339 M⁻¹ s⁻¹ | – | – | – | – | – |
| CC#CC(=O)N1CC(N2CC(c3cc(C#N)c4c(c3)Nc3nccc(C5CCOCC5)c3[C@H](C)O4)C2)C1 (single isomer, unassigned) [Compound 486] | 5620 nM | > 10000 nM | – | – | 1.32 M⁻¹ s⁻¹ | – | – | – | – | – |
| CC#CC(=O)N1CC(N2CC(c3cc4c(c(C)n3)O[C@@H](C)c3c(C5CCOCC5)ccnc3N4)C2)C1 (single isomer, unassigned) [Compound 487] | > 10000 nM | > 10000 nM | – | – | 1.54 M⁻¹ s⁻¹ | – | – | – | – | – |
| CC#CC(=O)N1CC(N2CC(c3cc4c(c(C)n3)O[C@H](C)c3c(C5CCOCC5)ccnc3N4)C2)C1 (single isomer, unassigned) [Compound 488] | ~302 nM | > 10000 nM | 0.328 µM | 4.23e-05 s⁻¹ | 129 M⁻¹ s⁻¹ | – | – | – | – | – |
| C=CC(=O)N1CCC(N2CC(c3cc4c(c(C#N)n3)O[C@H](C)c3c(N5CCOCC5)ccnc3N4)C2)CC1 (single isomer, unassigned) [Compound 489] | 58.9 nM | 3470 nM | – | – | 305 M⁻¹ s⁻¹ | – | – | – | – | – |
| C=CC(=O)N1CCC(N2CC(c3cc4c(c(C#N)n3)O[C@@H](C)c3c(N5CCOCC5)ccnc3N4)C2)CC1 (single isomer, unassigned) [Compound 491] | 479 nM | > 10000 nM | 0.403 µM | 2.48e-05 s⁻¹ | 61.4 M⁻¹ s⁻¹ | – | – | – | – | – |
| C=CC(=O)N1CC[C@@H](N2CC(c3cc4c(c(C(F)(F)F)n3)OCc3c(-c5cnn(C)c5)ccnc3N4)C2)C1 (single isomer, unassigned) [Compound 495] | 145 nM | > 10000 nM | 0.0763 µM | 5.75e-05 s⁻¹ | 754 M⁻¹ s⁻¹ | – | – | – | – | – |
| C=CC(=O)N1CC[C@H](N2CC(c3cc4c(c(C(F)(F)F)n3)OCc3c(-c5cnn(C)c5)ccnc3N4)C2)C1 (single isomer, unassigned) [Compound 497] | 138 nM | > 10000 nM | 0.0437 µM | 5.55e-05 s⁻¹ | 1270 M⁻¹ s⁻¹ | – | – | – | – | – |
| CC#CC(=O)N1CC(N2CCC(c3cc4c(c(C5CC5)n3)O[C@@H](C)c3c(N5CCOCC5)ccnc3N4)CC2)C1 (single isomer, unassigned) [Compound 498] | 148 nM | > 10000 nM | 0.0867 µM | 5.15e-05 s⁻¹ | 594 M⁻¹ s⁻¹ | – | – | – | – | – |
| CC#CC(=O)N1CC(N2CCC(c3cc4c(c(C5CC5)n3)O[C@H](C)c3c(N5CCOCC5)ccnc3N4)CC2)C1 (single isomer, unassigned) [Compound 499] | – | – | – | – | – | 5.74 | <5 | 4.482e-05 s⁻¹ | 20.4314 M⁻¹ s⁻¹ | 5.66 |
| C=CC(=O)N1CC[C@H](N2CC(c3cc4c(c(C(F)(F)F)n3)O[C@@H](C)c3c(N5CCOCC5)ccnc3N4)C2)C1 (single isomer, unassigned) [Compound 500] | 1200 nM | > 10000 nM | – | – | 12.7 M⁻¹ s⁻¹ | – | – | – | – | – |
| C=CC(=O)N1CC[C@H](N2CC(c3cc4c(c(C(F)(F)F)n3)O[C@H](C)c3c(N5CCOCC5)ccnc3N4)C2)C1 (single isomer, unassigned) [Compound 501] | – | > 10000 nM | 2.35 µM | 3.59e-05 s⁻¹ | – | 5.78 | – | – | 15.2689 M⁻¹ s⁻¹ | – |
| CC#CC(=O)N1CCC(N2CC(c3cc4c(c(C(F)(F)F)n3)O[C@@H](C)c3c(N5CCOCC5)ccnc3N4)C2)CC1 (single isomer, unassigned) [Compound 502] | 603 nM | > 10000 nM | – | – | 9.74 M⁻¹ s⁻¹ | – | – | – | – | – |
| C=CC(=O)N1CC[C@H](N2CC(c3cc4c(c(C(F)(F)F)n3)O[C@H](C)c3c(N5CCOCC5)ccnc3N4)C2)C1 (single isomer, unassigned) [Compound 503] | – | – | – | – | – | 6.88 | 5.12 | – | 629.38 M⁻¹ s⁻¹ | – |
| C=CC(=O)N1CC[C@@H](N2CC(c3cc4c(c(C(F)(F)F)n3)O[C@@H](C)c3c(N5CCOCC5)ccnc3N4)C2)C1 (single isomer, unassigned) [Compound 504] | 47.9 nM | 7760 nM | – | – | 681 M⁻¹ s⁻¹ | – | – | – | – | – |
